The source made the active and inactive calls.
Tests used:
Estrogen receptor = biological target: T1, Estrogen receptor (Homo sapiens, UniProt P03372); experiment: ERα coactivator recruitment enhancers – biochemical, TR-FRET, ERα LBD, dose response (AID 737)
T1 sequence (P03372 whole entry): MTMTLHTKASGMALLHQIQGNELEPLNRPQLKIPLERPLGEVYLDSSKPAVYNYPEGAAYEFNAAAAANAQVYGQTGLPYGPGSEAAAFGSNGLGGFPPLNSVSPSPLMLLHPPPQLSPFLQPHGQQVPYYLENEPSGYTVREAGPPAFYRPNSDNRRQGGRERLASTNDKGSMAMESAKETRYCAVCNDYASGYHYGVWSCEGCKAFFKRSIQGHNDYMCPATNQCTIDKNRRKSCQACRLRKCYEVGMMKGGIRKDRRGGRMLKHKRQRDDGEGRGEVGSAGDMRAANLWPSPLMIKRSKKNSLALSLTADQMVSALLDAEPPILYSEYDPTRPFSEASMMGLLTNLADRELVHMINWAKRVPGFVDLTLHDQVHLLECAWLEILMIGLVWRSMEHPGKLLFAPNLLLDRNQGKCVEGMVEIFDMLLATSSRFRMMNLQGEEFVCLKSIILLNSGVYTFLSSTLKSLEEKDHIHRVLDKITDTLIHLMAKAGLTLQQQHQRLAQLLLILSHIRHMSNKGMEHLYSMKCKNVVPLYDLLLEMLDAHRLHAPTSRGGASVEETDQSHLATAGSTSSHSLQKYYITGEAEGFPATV

[1] = Luminescence-based counterscreen assay for KLF5 inhibitors: dose response cell-based high throughput screening assay to identify cytotoxic compounds using the IEC-6 intestinal epithelial cell line. [Related pubchem assays: 1700 (Primary screen.), 1834 (Confirmation screen.), 1858 (Summary AID.), 1905 (Counterscreen.)]; type: functional
[2] = A549 cell cytotoxicity, dose response, cytotoxicity control, plate reader, cherry-pick, antagonist series (AID 743412); type: functional, cell-based
[3] = toxicity toward HepG2 liver cells – cell-based, plate reader, cherry-pick, antagonist series, cytotoxicity control, dose response (AID 743416); type: functional
[4] = blockers of bursicon-stimulated LGR2 cAMP reporter – cell-based, HEK293, CRE-luciferase reporter, cherry pick, set 2, dose response (AID 743343); type: functional;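 also: transfected cells were stimulated with diluted bursicon conditioned medium after compound addition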
[5] = blockade of melanocortin 4 receptor signaling – cell-based, plate reader, cherry pick, counter-screen for LGR2 antagonist project, dose response (AID 743444); type: functional;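 also: transfected HEK 293 cells stimulated with alpha-MSH peptide; potency of inhibitors of the alpha-MSH evoked signal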
[6] = biological target: T2, Oxysterols receptor LXR-beta (Homo sapiens, UniProt P55055); type: functional, cell-based;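 also: Cell-based luminescence dose-response assay of agonist activity at LXR, run as a confirmatory counterscreen to a daf-12 agonist screen; HEK293 cells with Gal4-LXR fusion and GAL4-driven luciferase reporter; agonist potency from rising luciferase signal of a Gal4-LXR reporter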
T2 sequence (P55055 whole entry): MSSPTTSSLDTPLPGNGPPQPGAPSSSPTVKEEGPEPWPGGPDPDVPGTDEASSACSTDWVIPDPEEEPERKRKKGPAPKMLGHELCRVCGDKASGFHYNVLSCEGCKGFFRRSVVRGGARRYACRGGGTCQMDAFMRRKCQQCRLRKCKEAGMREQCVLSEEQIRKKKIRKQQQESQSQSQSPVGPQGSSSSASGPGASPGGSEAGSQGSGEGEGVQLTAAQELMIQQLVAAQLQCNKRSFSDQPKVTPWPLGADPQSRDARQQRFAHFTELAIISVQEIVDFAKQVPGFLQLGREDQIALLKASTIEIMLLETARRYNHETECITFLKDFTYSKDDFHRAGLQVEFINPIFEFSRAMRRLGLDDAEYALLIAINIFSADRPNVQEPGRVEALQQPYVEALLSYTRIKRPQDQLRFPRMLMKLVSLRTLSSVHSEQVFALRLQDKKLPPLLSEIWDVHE

[7] = biological target: Neuropeptide Y receptor type 2 (Homo sapiens, UniProt P49146); experiment: IC50 for human NPY-Y2 blockade – cell-based, counter-screen for NPY-Y1 antagonist project, dose response (AID 1278); type: functional
Chain of Neuropeptide Y receptor type 2 (P49146 whole entry): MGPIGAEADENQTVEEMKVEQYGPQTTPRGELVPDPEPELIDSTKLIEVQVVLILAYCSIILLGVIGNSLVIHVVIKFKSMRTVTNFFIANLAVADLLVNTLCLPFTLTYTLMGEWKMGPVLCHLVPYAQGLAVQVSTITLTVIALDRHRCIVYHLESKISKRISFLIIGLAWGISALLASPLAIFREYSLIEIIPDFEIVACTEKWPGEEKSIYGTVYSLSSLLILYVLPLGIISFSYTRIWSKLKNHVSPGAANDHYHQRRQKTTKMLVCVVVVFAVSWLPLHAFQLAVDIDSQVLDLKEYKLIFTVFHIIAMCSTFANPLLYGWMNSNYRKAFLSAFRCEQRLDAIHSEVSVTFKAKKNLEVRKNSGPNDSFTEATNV

[8] = biological target: Neuropeptide Y receptor type 1 (Homo sapiens, UniProt P25929); experiment: IC50 of human NPY-Y1 blockers – cell-based, dose response (AID 1277); type: functional
Chain of Neuropeptide Y receptor type 1 (P25929 whole entry): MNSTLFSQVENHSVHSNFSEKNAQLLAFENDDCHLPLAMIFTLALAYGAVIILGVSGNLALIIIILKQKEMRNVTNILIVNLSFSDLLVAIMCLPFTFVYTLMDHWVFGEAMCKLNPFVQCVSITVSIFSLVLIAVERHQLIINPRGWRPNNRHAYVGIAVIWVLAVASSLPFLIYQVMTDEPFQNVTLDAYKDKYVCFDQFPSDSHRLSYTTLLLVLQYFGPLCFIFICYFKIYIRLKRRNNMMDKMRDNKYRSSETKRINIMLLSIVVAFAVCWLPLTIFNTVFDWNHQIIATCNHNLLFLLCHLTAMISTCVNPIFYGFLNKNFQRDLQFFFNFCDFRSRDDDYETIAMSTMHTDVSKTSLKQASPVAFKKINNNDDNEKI

With Cc1cc2oc(=O)cc(COC(=O)c3[nH]nc4ccccc34)c2cc1C the EC50 (Estrogen receptor) was 13.5 µM (active).
In the case of O=C(c1cc(-c2ccccc2Cl)on1)N1CCCC1, the IC50 [1] is reported as > 39.8 µM (not active), the AC50 [2] is reported as > 52 µM (inactive) and the AC50 [3] is reported as > 52 µM (inactive). The AC50 [4] was 7.48 µM (active), the AC50 [5] was 12.1 µM (active) and the EC50 [6] was > 67.5 µM (inactive). For the same molecule, the EC50 (cells) was > 67.5 µM (inactive).
For COc1ccccc1N(CC(=O)NC1CCCC1)C(=O)c1oc(C(C)(C)C)cc1C, the IC50 [7] was > 35 µM (not active) and the IC50 [8] was 30.4 µM (not active).
